Experimental findings from patent publication US20240115557A1, “INHIBITORS OF RNA-GUIDED NUCLEASES AND USES THEREOF” (The Brigham and Women's Hospital, Inc., priority 2022, published 2024) are described below.

The target in one test is T1, SaCas9 (Staphylococcus aureus, UniProt J7RUA5).
T1 sequence (J7RUA5 1-1053): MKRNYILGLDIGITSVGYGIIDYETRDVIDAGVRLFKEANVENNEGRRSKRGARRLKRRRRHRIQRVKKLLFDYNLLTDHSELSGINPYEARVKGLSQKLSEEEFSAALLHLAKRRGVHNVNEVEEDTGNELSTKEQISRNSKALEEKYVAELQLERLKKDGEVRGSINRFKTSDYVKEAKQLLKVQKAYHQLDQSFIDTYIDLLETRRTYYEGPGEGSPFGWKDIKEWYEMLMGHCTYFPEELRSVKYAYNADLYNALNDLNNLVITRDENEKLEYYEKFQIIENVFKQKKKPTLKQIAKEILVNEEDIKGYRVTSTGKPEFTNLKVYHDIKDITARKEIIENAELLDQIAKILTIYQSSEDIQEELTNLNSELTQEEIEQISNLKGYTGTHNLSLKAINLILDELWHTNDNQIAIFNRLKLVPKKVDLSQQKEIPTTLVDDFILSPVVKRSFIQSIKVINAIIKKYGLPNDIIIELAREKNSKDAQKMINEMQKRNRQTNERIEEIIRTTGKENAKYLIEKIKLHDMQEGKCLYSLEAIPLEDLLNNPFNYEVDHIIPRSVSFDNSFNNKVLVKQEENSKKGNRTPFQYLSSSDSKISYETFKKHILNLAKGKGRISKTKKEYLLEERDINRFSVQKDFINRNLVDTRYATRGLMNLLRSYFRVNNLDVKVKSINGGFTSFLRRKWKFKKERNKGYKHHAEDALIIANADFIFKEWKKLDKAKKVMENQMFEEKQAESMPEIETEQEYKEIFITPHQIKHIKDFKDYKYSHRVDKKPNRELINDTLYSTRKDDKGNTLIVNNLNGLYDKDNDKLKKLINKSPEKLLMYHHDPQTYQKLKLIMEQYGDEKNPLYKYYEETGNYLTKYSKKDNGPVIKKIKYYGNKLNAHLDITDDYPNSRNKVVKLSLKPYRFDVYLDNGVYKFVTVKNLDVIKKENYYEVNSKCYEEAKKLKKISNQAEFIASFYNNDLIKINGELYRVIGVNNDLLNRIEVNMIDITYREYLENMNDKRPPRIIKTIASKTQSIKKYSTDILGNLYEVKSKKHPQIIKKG
Description: eGFP secondary assay, SaCas9. The class given is cell-based. The conditions noted are these: for Z score Avg Z: average of two replicates, Zscore>3 selected as hit; for Normalized Inhibition Rep 1: replicate 1; for Normalized eGFP Disruption Rep 1: replicate 1, % eGFP disruption; for Z score Rep1: replicate 1, Zscore>3 selected as hit; for Normalized Inhibition Rep 2: replicate 2; for Normalized eGFP Disruption Rep 2: replicate 2, % eGFP disruption; for Z score Rep 2: replicate 2, Zscore>3 selected as hit. Here is the method: All hit compounds were moved forward into the secondary and tertiary screens, in which they were tested in cell-based assays. An eGFP assay is used to determine hits in cells as the secondary screen (eGFP assay).
The eGFP secondary assay evaluated the hits identified from the primary screen. The compounds were judged off the % eGFP disruption to determine the Cas9 inhibition and the assay Zscore. […] The hits from the secondary screens will be processed through tertiary screens of dose studies and HiBit Assay as detailed herein.

Test [1] addresses T2, SpCas9 (Streptococcus pyogenes serotype M1, UniProt Q99ZW2). Description: eGFP disruption assay, SpCas9, U2OS.eGFP.PEST cells. It counts as cell-based. In short, it runs like this: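 U2OS.eGFP.PEST cells nucleofected with 300 ng SpCas9 plasmid plus 30 ng eGFP-targeting gRNA plasmid, or with SpCas9 RNP (10 pmol protein, 12 pmol gRNA). Cells then incubated 24 h with compound (20 μM in screening). Inhibition is read as rescue of eGFP fluorescence in paraformaldehyde-fixed, nuclear-stained cells.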

The target in test [2] is T2, SpCas9. Description: Strand displacement assay (SDA) / cumulative activity assay (CAA), SpCas9 primary screen. As to conditions: Primary Screen (150 min). The class given is biochemical. The essentials: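 SpCas9:gRNA RNP in 20 mM Tris-HCl pH 7.5, 100 mM KCl, 5 mM MgCl2 was used at 10 nM (2× stock) with Alexa Fluor 647-labelled substrate and excess quencher strand (1 nM and 5 nM, 2× stocks). Fluorescence was read after 2.5 h at 37 °C, where cleavage lets the quencher strand anneal.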

T2 sequence (Q99ZW2 whole entry): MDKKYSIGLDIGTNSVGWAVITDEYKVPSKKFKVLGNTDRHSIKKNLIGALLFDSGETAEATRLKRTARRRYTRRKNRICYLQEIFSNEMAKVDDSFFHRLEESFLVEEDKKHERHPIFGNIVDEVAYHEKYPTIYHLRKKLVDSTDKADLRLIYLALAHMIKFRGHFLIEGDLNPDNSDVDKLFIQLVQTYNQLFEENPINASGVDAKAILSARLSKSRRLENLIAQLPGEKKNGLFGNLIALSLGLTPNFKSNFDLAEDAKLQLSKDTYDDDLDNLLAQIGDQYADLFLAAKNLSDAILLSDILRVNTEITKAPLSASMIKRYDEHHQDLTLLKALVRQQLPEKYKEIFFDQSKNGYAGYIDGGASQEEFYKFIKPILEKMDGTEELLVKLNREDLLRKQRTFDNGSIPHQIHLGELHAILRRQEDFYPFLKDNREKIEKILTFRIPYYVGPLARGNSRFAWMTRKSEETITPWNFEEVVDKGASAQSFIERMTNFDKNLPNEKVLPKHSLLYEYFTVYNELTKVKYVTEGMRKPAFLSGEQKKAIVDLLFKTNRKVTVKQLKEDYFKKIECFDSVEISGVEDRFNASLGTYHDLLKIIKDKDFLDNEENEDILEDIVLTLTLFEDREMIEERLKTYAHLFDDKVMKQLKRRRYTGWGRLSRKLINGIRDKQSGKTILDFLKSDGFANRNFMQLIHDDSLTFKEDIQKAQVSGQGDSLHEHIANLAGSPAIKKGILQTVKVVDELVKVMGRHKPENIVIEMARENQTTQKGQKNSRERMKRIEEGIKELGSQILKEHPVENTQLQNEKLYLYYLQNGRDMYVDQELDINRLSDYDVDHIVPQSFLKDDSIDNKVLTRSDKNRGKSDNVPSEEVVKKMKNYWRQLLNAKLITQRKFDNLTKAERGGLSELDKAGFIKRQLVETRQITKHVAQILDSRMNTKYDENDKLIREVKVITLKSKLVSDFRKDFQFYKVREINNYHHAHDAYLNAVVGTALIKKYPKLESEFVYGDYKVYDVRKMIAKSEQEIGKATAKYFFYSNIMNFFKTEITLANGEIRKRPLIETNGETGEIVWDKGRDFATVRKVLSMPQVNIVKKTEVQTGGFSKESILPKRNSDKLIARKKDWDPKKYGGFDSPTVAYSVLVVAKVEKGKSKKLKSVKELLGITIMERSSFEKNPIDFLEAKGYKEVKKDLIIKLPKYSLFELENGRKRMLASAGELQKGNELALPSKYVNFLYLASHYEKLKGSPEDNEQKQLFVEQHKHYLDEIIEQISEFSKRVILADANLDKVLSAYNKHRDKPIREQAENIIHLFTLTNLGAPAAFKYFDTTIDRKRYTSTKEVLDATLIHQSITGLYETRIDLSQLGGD

Consider `Cc1cc(=O)c2cc(C(=O)Nc3ccc(F)cc3)ccc2[nH]1` [D421-0876], for which, on SaCas9, the “Z score Avg Z” value came out at 3.719, the “Normalized Inhibition Rep 1” value was found to be 37.535, the “Normalized eGFP Disruption Rep 1” value came out at 62.465 and the “Z score Rep1” value is given as 3.774. Besides, at SaCas9, the “Normalized Inhibition Rep 2” value is given as 47.343, the “Normalized eGFP Disruption Rep 2” value turned out to be 52.657 and the “Z score Rep 2” value was 3.664.
With `Cc1nc(Nc2ccc(N3CCOCC3)cc2)cc(-c2ccccc2)n1` [D278-0547], on SaCas9, the “Z score Avg Z” value came to 4.467, the “Normalized Inhibition Rep 1” value was 55.528, the “Normalized eGFP Disruption Rep 1” value turned out to be 44.472 and the “Z score Rep1” value is on record as 5.583. In addition, on SaCas9, the “Normalized Inhibition Rep 2” value is 43.307, the “Normalized eGFP Disruption Rep 2” value is 56.693 and the “Z score Rep 2” value was 3.352.
For the compound `COc1ccccc1-c1nn2c(-c3cccnc3)nnc2s1` [D727-0059], on SaCas9, the “Z score Avg Z” value is given as 3.290, the “Normalized Inhibition Rep 1” value is on record as 17.227, the “Normalized eGFP Disruption Rep 1” value was found to be 82.773 and the “Z score Rep1” value was 2.609. Further, at SaCas9, the “Normalized Inhibition Rep 2” value was 33.253, the “Normalized eGFP Disruption Rep 2” value came out at 66.747 and the “Z score Rep 2” value came to 3.970.
In the case of `CCCCN(CC)C(=O)C1CCCN(c2ccc(-c3ccccc3)nn2)C1` (stereo not shown) [Compound F305-0030], on SaCas9, the “Z score Avg Z” value came to 4.852, the “Normalized Inhibition Rep 1” value was 42.608, the “Normalized eGFP Disruption Rep 1” value stood at 57.392 and the “Z score Rep1” value came out at 5.044. At SaCas9, the “Normalized Inhibition Rep 2” value came to 35.423, the “Normalized eGFP Disruption Rep 2” value turned out to be 64.577 and the “Z score Rep 2” value is on record as 4.659.
In the case of `Fc1cccc(-c2nnc3sc(-c4c[nH]c5ccccc45)nn23)c1` [Compound D727-0772], on SaCas9, the “Z score Avg Z” value is given as 3.957, the “Normalized Inhibition Rep 1” value turned out to be 42.243, the “Normalized eGFP Disruption Rep 1” value came to 57.757 and the “Z score Rep1” value amounted to 6.397. For the same compound, on SaCas9, the “Normalized Inhibition Rep 2” value turned out to be 12.707, the “Normalized eGFP Disruption Rep 2” value was determined as 87.293 and the “Z score Rep 2” value is reported as 1.517.
Take `COc1cccc(N2C(=O)c3cc4ccccc4n3CC2(C)C(=O)NC2CCCCC2)c1` (stereo not shown) [E234-0006]: on SaCas9, the “Z score Avg Z” value was 5.194, the “Normalized Inhibition Rep 1” value is 57.048, the “Normalized eGFP Disruption Rep 1” value is listed as 42.952 and the “Z score Rep1” value is 6.753. Also, on SaCas9, the “Normalized Inhibition Rep 2” value is given as 27.639, the “Normalized eGFP Disruption Rep 2” value stood at 72.361 and the “Z score Rep 2” value came to 3.635.
`Cc1ccccc1CC(=O)N1CCCC(c2nc(O)c3nnn(Cc4ccc(F)cc4)c3n2)C1` (stereo not shown) [D297-0031]: at SaCas9, the “Z score Avg Z” value is 3.488, the “Normalized Inhibition Rep 1” value is 35.959, the “Normalized eGFP Disruption Rep 1” value was 64.041 and the “Z score Rep1” value was 3.615. Moreover, at SaCas9, the “Normalized Inhibition Rep 2” value is given as 43.425, the “Normalized eGFP Disruption Rep 2” value is listed as 56.575 and the “Z score Rep 2” value worked out at 3.361.
Regarding `Cc1nc2nc(N(CCOc3ccccc3)S(=O)(=O)c3ccccc3)nn2c(C)c1Cl` [D513-3628], on SaCas9, the “Z score Avg Z” value is given as 5.173, the “Normalized Inhibition Rep 1” value is 51.726, the “Normalized eGFP Disruption Rep 1” value turned out to be 48.274 and the “Z score Rep1” value is 5.201. Besides, on SaCas9, the “Normalized Inhibition Rep 2” value is 66.480, the “Normalized eGFP Disruption Rep 2” value was determined as 33.520 and the “Z score Rep 2” value came to 5.145.
`CC(=O)Nc1ccc(C(=O)Nc2ccc(CCc3nc4ccccc4n3-c3ccccc3)cc2)cc1` [F255-0057]: on SaCas9, the “Z score Avg Z” value is 5.773, the “Normalized Inhibition Rep 1” value was determined as 46.812, the “Normalized eGFP Disruption Rep 1” value is on record as 53.188 and the “Z score Rep1” value turned out to be 5.542. For the same compound, on SaCas9, the “Normalized Inhibition Rep 2” value is 45.641, the “Normalized eGFP Disruption Rep 2” value is listed as 54.359 and the “Z score Rep 2” value is on record as 6.003.
`O=c1oc2c(O)c(O)ccc2c2c1CCCC2` [D715-2438]: at SaCas9, the “Z score Avg Z” value was found to be 3.681, the “Normalized Inhibition Rep 1” value amounted to 17.908, the “Normalized eGFP Disruption Rep 1” value is on record as 82.092 and the “Z score Rep1” value was determined as 2.712. For the same compound, at SaCas9, the “Normalized Inhibition Rep 2” value was found to be 38.947, the “Normalized eGFP Disruption Rep 2” value amounted to 61.053 and the “Z score Rep 2” value was 4.650.
`CC(C)Cc1nnc2sc(-c3c[nH]c4ccccc34)nn12` [D727-0768]: at SaCas9, the “Z score Avg Z” value turned out to be 4.634, the “Normalized Inhibition Rep 1” value is 20.049, the “Normalized eGFP Disruption Rep 1” value turned out to be 79.951 and the “Z score Rep1” value is 3.036. Moreover, at SaCas9, the “Normalized Inhibition Rep 2” value turned out to be 52.187, the “Normalized eGFP Disruption Rep 2” value is listed as 47.813 and the “Z score Rep 2” value was found to be 6.231.
For `COc1ccc(N2C(=O)c3cc4ccccc4n3CC2(C)C(=O)NC2CCCCC2)c(OC)c1` (stereo not shown) [E234-0018], at SaCas9, the “Z score Avg Z” value was 3.770, the “Normalized Inhibition Rep 1” value is 38.606, the “Normalized eGFP Disruption Rep 1” value worked out at 61.394 and the “Z score Rep1” value was 4.570. Moreover, at SaCas9, the “Normalized Inhibition Rep 2” value is 22.579, the “Normalized eGFP Disruption Rep 2” value is listed as 77.421 and the “Z score Rep 2” value is given as 2.970.
For the compound `O=C1c2ccccc2C(=O)c2oc(-c3ccc(F)cc3)nc21` [T0502-0200], on SaCas9, the “Z score Avg Z” value came out at 3.138, the “Normalized Inhibition Rep 1” value is listed as 35.091, the “Normalized eGFP Disruption Rep 1” value is 64.909 and the “Z score Rep1” value is on record as 3.528. In addition, at SaCas9, the “Normalized Inhibition Rep 2” value worked out at 35.519, the “Normalized eGFP Disruption Rep 2” value stood at 64.481 and the “Z score Rep 2” value was found to be 2.749.
As for `Cc1cccc(NC(=O)c2cc3c(=O)n4ccccc4nc3s2)c1` [C243-0026], at SaCas9, the “Z score Avg Z” value stood at 3.100, the “Normalized Inhibition Rep 1” value worked out at 30.470, the “Normalized eGFP Disruption Rep 1” value was found to be 69.530 and the “Z score Rep1” value worked out at 3.063. For the same compound, at SaCas9, the “Normalized Inhibition Rep 2” value is given as 40.519, the “Normalized eGFP Disruption Rep 2” value was 59.481 and the “Z score Rep 2” value is 3.136.
In the case of `CCOc1ccc(NC(=O)c2cc(=O)c3cc(CC)ccc3o2)c2cccnc12` [Compound D656-0061], on SaCas9, the “Z score Avg Z” value turned out to be 3.973, the “Normalized Inhibition Rep 1” value is recorded as 7.616, the “Normalized eGFP Disruption Rep 1” value came out at 92.384 and the “Z score Rep1” value came out at 1.153. On SaCas9, the “Normalized Inhibition Rep 2” value is on record as 56.899, the “Normalized eGFP Disruption Rep 2” value came to 43.101 and the “Z score Rep 2” value was 6.794.
Consider `Cn1nc(-c2ccccc2F)c2cc(C(=O)Oc3ccc4cnccc4c3)sc21` [Compound G784-0099], for which, on SpCas9 [1] (replicate 1), the “Normalized Z rep1” value is −0.35 and the “Z score Rep1” value is recorded as −3.62. For the same compound, on SpCas9 [1] (replicate 1, raw readout), the “SpCas9 eGFP disruption Rep1” value was found to be 69.21. For the same compound, on SpCas9 [1] (replicate 2), the “Normalized Z rep2” value was 0.01 and the “Z socre Rep2” value came out at 0.21. Moreover, the “SpCas9 eGFP disruption Rep2” value at SpCas9 [1] (replicate 2, raw readout) is reported as 76.066. Further, on SpCas9 [2], the “Average Normalized Z score” value turned out to be 0.07 and the “avg z score primary” value is given as 7.48. Also, the “Normalized Z score 1” value at SpCas9 [2] (replicate 1) was 0.06. Further, the “Normalized Z score 2” value on SpCas9 [2] (replicate 2) was determined as 0.09.
